From PubChem BioAssay AID1259408 (Genetic Toxicology Data Bank (GENE-TOX), 2018)
Calls of active or inactive are those of the source. The rule behind the calls is not given here.

Test system: GENE-TOX genotoxicity assays, various organisms and cells
Experiment: GENE-TOX mutagenicity studies
Conditions: for call: Assay Type: In vivo carcinogenicity studies
[1] = Species/Cell Type: Salmonella typhimurium (one or more of the five standard strains: TA98, TA100, TA1535, TA1537, and TA1538), Assay Type: Histidine reverse gene mutation, Ames assay, Assay Code: SAL+, Evaluation Type: Evaluation A (Pre-1980)
[2] = Species/Cell Type: Salmonella typhimurium (one or more of the five standard strains: TA98, TA100, TA1535, TA1537, and TA1538), Assay Type: Histidine reverse gene mutation, Ames assay, Assay Code: SAL+*, Activation: With metabolic activation, Evaluation Type: Evaluation A (Pre-1980)
[3] = Species/Cell Type: Salmonella typhimurium (one or more of the five standard strains: TA98, TA100, TA1535, TA1537, and TA1538), Assay Type: Histidine reverse gene mutation, Ames assay, Assay Code: SALT, Evaluation Type: Evaluation A (Pre-1980)

## CCN(N=O)C(N)=O
Species/Cell Type: Arabidopsis species, Assay Type: Gene mutation, Assay Code: ARM+D, Dose Response: With dose response, Evaluation Type: Evaluation A (Pre-1980)
  mutagenic call: active; positive
Species/Cell Type: Chinese hamster ovary (CHO) cells, Assay Type: Forward gene mutation at the HPRT locus, Assay Code: CHO+D, Dose Response: With dose response, Evaluation Type: Evaluation A (Pre-1980)
  mutagenic call: active; positive
Species/Cell Type: Drosophila melanogaster, Assay Type: Aneuploidy, partial sex chromosome loss, chromosome aberrations, Assay Code: DAP+M, Evaluation Type: Evaluation A (Pre-1980)
  mutagenic call: active; positive
Species/Cell Type: Drosophila melanogaster, Assay Type: Aneuploidy, whole sex chromosome loss, chromosome aberrations, Assay Code: DAC+M, Evaluation Type: Evaluation A (Pre-1980)
  mutagenic call: active; positive
Species/Cell Type: Drosophila melanogaster, Assay Type: Sex-linked recessive lethal gene mutation, Assay Code: SRL+, Evaluation Type: Evaluation A (Pre-1980)
  mutagenic call: active; positive
Species/Cell Type: Drosophila melanogaster, Sex: Male, Assay Type: Heritable translocation test, chromosome aberrations, Assay Code: DHTT, Evaluation Type: Evaluation A (Pre-1980)
  mutagenic call: no conclusion
Species/Cell Type: Escherichia coli polA (W3119 vs P3478), Assay Type: Rec-assay, DNA effects (bacterial DNA repair), Assay Code: RE1+, Evaluation Type: Evaluation A (Pre-1980)
  mutagenic call: active; positive
Species/Cell Type: Fischer rat embryo (RLV/1706) cells, Assay Type: Cell transformation, viral enhanced, Assay Code: CTR+, Evaluation Type: Evaluation A (Pre-1980)
  mutagenic call: active; positive
Species/Cell Type: Hordeum vulgare (barley), Assay Type: Chromosome aberrations, Assay Code: HOC+, Evaluation Type: Evaluation A (Pre-1980)
  mutagenic call: active; positive
Species/Cell Type: Hordeum vulgare (barley), Assay Type: Gene mutation, Assay Code: HOM+, Evaluation Type: Evaluation A (Pre-1980)
  mutagenic call: active; positive
Species/Cell Type: Human diploid fibroblasts, Assay Type: Unscheduled DNA synthesis (UDS) in vitro, DNA effects, Assay Code: UDH+, Evaluation Type: Evaluation A (Pre-1980)
  mutagenic call: active; positive
Species/Cell Type: Human lymphocytes or leukocytes, Assay Type: Chromosome aberrations in vitro, Assay Code: CY7+D, Dose Response: With dose response, Evaluation Type: Evaluation A (Pre-1980)
  mutagenic call: active; positive
Species/Cell Type: Human, Assay Type: Sister-chromatid exchange (SCE) in vitro, Assay Code: SC1+, Evaluation Type: Evaluation A (Pre-1980)
  mutagenic call: active; positive
Species/Cell Type: Mammalian polychromatic erythrocytes, Assay Type: Micronucleus test, chromosome aberrations, Assay Code: MNT+, Evaluation Type: Evaluation B (Post-1980)
  mutagenic call: active; positive
Species/Cell Type: Mouse germ cells, Sex: Male, Assay Type: Unscheduled DNA synthesis (UDS) in vivo, DNA effects, Assay Code: UDT+, Evaluation Type: Evaluation A (Pre-1980)
  mutagenic call: active; positive
Species/Cell Type: Mouse, Sex: Female, Assay Type: Spot test, gene mutation, Assay Code: MST+, Evaluation Type: Evaluation A (Pre-1980)
  mutagenic call: active; positive
Species/Cell Type: Mouse, Sex: Male, Assay Type: Specific locus test, gene mutation, Assay Code: SLT+, Evaluation Type: Evaluation A (Pre-1980)
  mutagenic call: active; positive
Species/Cell Type: Neurospora crassa, Assay Type: Forward gene mutation, Assay Code: NEF+, Evaluation Type: Evaluation A (Pre-1980)
  mutagenic call: active; positive
Species/Cell Type: Nonhuman bone marrow, Assay Type: Chromosome aberrations, in vivo, Assay Code: CY#+, Evaluation Type: Evaluation A (Pre-1980)
  mutagenic call: active; positive
Species/Cell Type: Nonhuman, Assay Code: CCG+, Evaluation Type: Evaluation A (Pre-1980)
  call: active; positive
Species/Cell Type: Nonhuman, Assay Type: Sister-chromatid exchange (SCE) in vitro, Assay Code: SC2+D, Dose Response: With dose response, Evaluation Type: Evaluation A (Pre-1980)
  mutagenic call: active; positive
Species/Cell Type: Nonhuman, Assay Type: Sister-chromatid exchange (SCE) in vivo, Assay Code: SC3+D, Dose Response: With dose response, Evaluation Type: Evaluation B (Post-1980)
  mutagenic call: active; positive
Species/Cell Type: Saccharomyces cerevisiae, Assay Type: Mitotic recombination or gene conversion, Assay Code: YEC+, Evaluation Type: Evaluation A (Pre-1980)
  mutagenic call: active; positive
Species/Cell Type: Saccharomyces cerevisiae, Assay Type: Mitotic recombination or gene conversion, Assay Code: YEH+, Evaluation Type: Evaluation A (Pre-1980)
  mutagenic call: active; positive
[1]
  mutagenic call: active; positive
Species/Cell Type: Salmonella typhimurium, Assay Type: Forward and reverse gene mutation, host-mediated assay, Assay Code: HMA+, Evaluation Type: Evaluation A (Pre-1980)
  mutagenic call: active; positive
Species/Cell Type: Syrian hamster embryo (SHE) cells, Assay Type: Cell transformation, clonal assay, Assay Code: CTCT, Evaluation Type: Evaluation A (Pre-1980)
  mutagenic call: no conclusion
Species/Cell Type: Vicia faba, Assay Type: Chromosome aberrations, Assay Code: VIC+, Evaluation Type: Evaluation A (Pre-1980)
  mutagenic call: active; positive
Species/Cell Type: Zea mays (corn), Assay Type: Gene mutation, Assay Code: ZEM+D, Dose Response: With dose response, Evaluation Type: Evaluation A (Pre-1980)
  mutagenic call: active; positive

## O=C(O)CCC(=O)OC[C@@H](NC(=O)C(Cl)Cl)[C@H](O)c1ccc([N+](=O)[O-])cc1
Species/Cell Type: Mammalian polychromatic erythrocytes, Assay Type: Micronucleus test, chromosome aberrations, Assay Code: MNTT, Evaluation Type: Evaluation A (Pre-1980)
  mutagenic call: no conclusion
Species/Cell Type: Mouse, Sex: Male, Assay Type: Sperm morphology, Assay Code: SPI-, Evaluation Type: Evaluation A (Pre-1980)
  mutagenic call: inactive; negative

## c1cc2c3c(c1)cc1ccc4cccc5cc(c3c1c45)CC2
[2]
  mutagenic call: active; positive

## Clc1ccc(C2CO2)cc1 (stereo unspecified)
[3]
  mutagenic call: no conclusion

## O=CNc1nc(-c2ccc([N+](=O)[O-])[nH]2)cs1
[3]
  mutagenic call: no conclusion

## CCCCOc1ccc(CC(=O)NO)cc1
Species/Cell Type: Human lymphocytes, Assay Type: Sister-chromatid exchange (SCE) in vitro, Assay Code: SCLT, Evaluation Type: Evaluation B (Post-1980)
  mutagenic call: no conclusion
Species/Cell Type: Human, Assay Type: Sister-chromatid exchange (SCE) in vitro, Assay Code: SC1T, Evaluation Type: Evaluation B (Post-1980)
  mutagenic call: no conclusion
Species/Cell Type: Nonhuman, Assay Type: Sister-chromatid exchange (SCE) in vitro, Assay Code: SC2+, Evaluation Type: Evaluation B (Post-1980)
  mutagenic call: active; positive
[3]
  mutagenic call: no conclusion

## OC(c1ccc2c(c1)OCO2)C1CO1 (stereo unspecified)
Species/Cell Type: Drosophila melanogaster, Assay Type: Sex-linked recessive lethal gene mutation, Assay Code: SRLT, Evaluation Type: Evaluation A (Pre-1980)
  mutagenic call: no conclusion
[1]
  mutagenic call: active; positive

## CC(=O)c1ccc(S(=O)(=O)NC(=O)NC2CCCCC2)cc1
Species/Cell Type: Nonhuman, Assay Type: Sister-chromatid exchange (SCE) in vivo, Assay Code: SC3T, Evaluation Type: Evaluation B (Post-1980)
  mutagenic call: no conclusion

## COc1cc(O)ccc1O
Species/Cell Type: Allium cepa, Assay Type: Chromosome aberrations, Assay Code: ALCT, Evaluation Type: Evaluation A (Pre-1980)
  mutagenic call: no conclusion

## ClC(Cl)(Cl)C(Cl)(Cl)Cl
Species/Cell Type: Nonhuman, Assay Code: CCG+L, Evaluation Type: Evaluation A (Pre-1980)
  call: active; positive
Species/Cell Type: Saccharomyces cerevisiae, Assay Type: Mitotic recombination or gene conversion, Assay Code: YEH-, Evaluation Type: Evaluation A (Pre-1980)
  mutagenic call: inactive; negative
Species/Cell Type: Salmonella typhimurium (one or more of the five standard strains: TA98, TA100, TA1535, TA1537, and TA1538), Assay Type: Histidine reverse gene mutation, Ames assay, Assay Code: SAL-, Evaluation Type: Evaluation A (Pre-1980)
  mutagenic call: inactive; negative

## O=C1CN(CO)C(=O)CN1CO
Species/Cell Type: Arabidopsis species, Assay Type: Gene mutation, Assay Code: ARM-, Evaluation Type: Evaluation A (Pre-1980)
  mutagenic call: inactive; negative

## O=C(O)CNCP(=O)(O)O
Species/Cell Type: Human lymphocytes, Assay Type: Sister-chromatid exchange (SCE) in vitro, Assay Code: SCL+, Evaluation Type: Evaluation B (Post-1980)
  mutagenic call: active; positive
Species/Cell Type: Human, Assay Type: Sister-chromatid exchange (SCE) in vitro, Assay Code: SC1+, Evaluation Type: Evaluation B (Post-1980)
  mutagenic call: active; positive

## [2H]C1([2H])CNP(=O)(N(CCCl)CCCl)OC1 (stereo unspecified)
Species/Cell Type: Nonhuman, Assay Type: Sister-chromatid exchange (SCE) in vitro, Assay Code: SC2+D*, Activation: With metabolic activation, Dose Response: With dose response, Evaluation Type: Evaluation B (Post-1980)
  mutagenic call: active; positive

## OC1C=Cc2cc3ccc4cccc5ccc(c2C1O)c3c45 (stereo unspecified)
Species/Cell Type: Mouse prostate cells, Assay Type: Cell transformation, Assay Code: CTM+, Evaluation Type: Evaluation A (Pre-1980)
  mutagenic call: active; positive

## Cc1ccc2c(ccc3c4ccccc4ccc23)c1
[2]
  mutagenic call: active; positive
